In ChEMBL document CHEMBL4342505, “Achieving In Vivo Target Depletion through the Discovery and Optimization of Benzimidazolone BCL6 Degraders” (J Med Chem, 2020):
Values after ≈ are worked out from the molar mass of the structure shown.

How the values were obtained:
[1] = molecular target: T1, B-cell lymphoma 6 protein (Homo sapiens, UniProt P41182)
Description: Inhibition of recombinant His-tagged human BCL6 expressed in Escherichia coli BL21 AI cell incubated for 2 hrs by TR-FRET assay

[2] = Kinetic solubility in HEPES buffer containing 5% DMSO at pH 8 incubated for 20 hrs by NMR analysis; assay type: physicochemical; details: read-out: Kinetic_solubility
[3] = molecular target: T1, B-cell lymphoma 6 protein; remark: listed apart in the source
Description: Induction of BCL6 degradation in human SUDHL-4 cells incubated for 2 hrs by immunofluorescence analysis

[4] = Lipophilicity, log D of compound at pH 7.4; assay type: physicochemical; details: buffer
[5] = Metabolic stability in CD-1 mouse liver microsomes assessed as intrinsic clearance at 1 uM measured upt0 30 mins by LC-MS/MS analysis; assay type: ADME, Microsome; details: 0.5 h
[6] = Kinetic solubility in PBS buffer containing 1% DMSO at pH 7.4 incubated for 2 hrs by HPLC analysis; assay type: physicochemical; details: read-out: Kinetic_solubility
BCL-6/NCOR2 = BCL-6/NCOR2 (Homo sapiens, UniProt P41182)
Description: Inhibition of recombinant human Nanoluc-tagged BCL6/Halo-tagged SMRT transfected in human HEK293T cells assessed as reduction in BCL6/SMRT interaction incubated for 6 hrs by NANOBRET assay

OCI-Ly3 = test: Antiproliferative activity agianst human OCI-LY3 cells assessed as growth inhibition incubated for 14 days by CellTiter Glo reagent based assay
[7] = molecular target: T1, B-cell lymphoma 6 protein; details: oci-ly1
Description: Induction of BCL6 degradation in human OCI-LY1 cells incubated for 2 hrs by MSD electrochemiluminescent immunoassay

[8] = molecular target: T1, B-cell lymphoma 6 protein; remark: listed apart in the source
Description: Induction of BCL6 degradation in human KARPAS422 cells incubated for 2 hrs by MSD electrochemiluminescent immunoassay

OCI-Ly1 = test: Antiproliferative activity agianst human OCI-LY1 cells assessed as growth inhibition incubated for 14 days by CellTiter Glo reagent based assay
SUD4 = test: Antiproliferative activity agianst human SUDHL4 cells assessed as growth inhibition incubated for 14 days by CellTiter Glo reagent based assay; assay type: functional; details: SU-DHL-4, […]
[9] = Permeability of compound by PAMPA assay; assay type: ADME
[10] = molecular target: T1, B-cell lymphoma 6 protein; test: Induction of BCL6 degradation in human SUDHL-4 cells incubated for 4 hrs by Western blot analysis; assay type: cell-based
[11] = molecular target: T1, B-cell lymphoma 6 protein; test: Induction of BCL6 degradation in human OCI-LY1 cells incubated for 4 hrs by Western blot analysis; assay type: cell-based

Row | Compound | IC50 [1] [nM] | solubility kinetic at 20 h [2] [µM] | DC50 [3] [nM] | also measured
1 | CC[C@H](O)Cn1c(=O)n(C)c2ccc(Nc3ccnc(Cl)c3C#N)cc21 | 4600 | 313 (≈ 116 µg/mL) | – | –
2 | Cc1nc(C)c(-c2ncc(Cl)c(Nc3ccc4c(c3)n(CCC(C)(C)O)c(=O)n4C)n2)s1 | 1400 | < 30 | > 10000 | –
3 | Cn1c(=O)n(CCC(C)(C)O)c2cc(Nc3ncnc(Cl)c3Cl)ccc21 | 2100 | 344 (≈ 136 µg/mL) | – | –
4 | Cn1c(=O)n(CCC(C)(C)O)c2cc(Nc3nc(N4CC5CCC(C4)C5(F)F)ncc3Cl)ccc21 | 710 | 22 (≈ 11.2 µg/mL) | > 10000 | –
5 | Cn1c(=O)n(C)c2cc(Nc3cc(SCc4ccccc4)ncn3)ccc21 | – | < 30 | – | –
6 | COCC1CN(c2ncc(Cl)c(Nc3ccc4c(c3)n(CCC(C)(C)O)c(=O)n4C)n2)CCC1(F)F (centres undefined) | – | 72 (≈ 37.8 µg/mL) | 440 | logD [4]: 3.5; CLH [5]: > 1000 µL/min/mg
7 | CCC(C#N)Cn1c(=O)n(C)c2ccc(Nc3ccnc(Cl)c3C#N)cc21 (centres undefined) | – | < 30 | – | solubility kinetic at 2 h [6]: 9.2 µM (≈ 3.5 µg/mL)
8 | CN(C)c1ncc(Cl)c(Nc2ccc3c(c2)n(CCC(C)(C)O)c(=O)n3C)n1 | 1200 | 223 (≈ 90.3 µg/mL) | – | –
9 | Cc1cc(C)n(-c2ncc(Cl)c(Nc3ccc4c(c3)n(CCC(C)(C)O)c(=O)n4C)n2)n1 | 260 | 404 (≈ 184 µg/mL) | > 10000 | IC50 (BCL-6/NCOR2): 1800 nM
10 | Cc1ccnn1-c1ncc(Cl)c(Nc2ccc3c(c2)n(CCC(C)(C)O)c(=O)n3C)n1 | 430 | 420 (≈ 186 µg/mL) | > 10000 | IC50 (BCL-6/NCOR2): 2700 nM
11 | Cn1c(=O)n(CCC(C)(C)O)c2cc(Nc3nc(N4CCCC(C#N)C4)ncc3Cl)ccc21 (centres undefined) | 390 | 330 (≈ 155 µg/mL) | > 10000 | –
12 | C[C@@H]1C[C@H](C)CN(c2cc(Nc3ccc4c(c3)n(CCC(C)(C)O)c(=O)n4C)c(Cl)cn2)C1 | 3500 | 12 (≈ 5.66 µg/mL) | 1800 | –
13 | C[C@H](O)CCn1c(=O)n(C)c2ccc(Nc3ccnc(Cl)c3C#N)cc21 | – | 251 (≈ 93.3 µg/mL) | – | –
14 | Cn1ccnc1-c1ncc(Cl)c(Nc2ccc3c(c2)n(CCC(C)(C)O)c(=O)n3C)n1 | 480 | 113 (≈ 49.9 µg/mL) | > 10000 | IC50 (BCL-6/NCOR2): 4600 nM
15 | C[C@@H]1CN(c2ncc(Cl)c(Nc3ccc4c(c3)n(CCC(C)(C)O)c(=O)n4C)n2)C[C@H](C)O1 | 150 | < 30 | > 10000 | IC50 (BCL-6/NCOR2): 1760 nM; solubility kinetic at 2 h [6]: 95 µM (≈ 45.1 µg/mL); CLH [5]: 104 µL/min/mg
16 | Cn1c(=O)n(CCC(C)(C)O)c2cc(Nc3nc(N4C5CCC4CC(F)(F)C5)ncc3Cl)ccc21 | – | < 30 | – | –
17 | Cn1c(=O)n(CCC(C)(C)O)c2cc(Nc3nc(N4CCC(C(F)(F)F)CC4)ncc3Cl)ccc21 | 960 | 22 (≈ 11.3 µg/mL) | > 10000 | –
18 | Cn1c(=O)n(CCC(C)(C)O)c2cc(Nc3nc(-n4cccn4)ncc3Cl)ccc21 | 710 | 146 (≈ 62.5 µg/mL) | > 10000 | IC50 (BCL-6/NCOR2): 5900 nM
19 | CSc1ncc(Cl)c(Nc2ccc3c(c2)n(CCC(C)(C)O)c(=O)n3C)n1 | 680 | 337 (≈ 137 µg/mL) | – | –
20 | N#Cc1c(NCC2CC2)ccnc1Cl | – | 300 (≈ 62.3 µg/mL) | – | –
21 | Cn1c(=O)n(CCC(C)(C)O)c2cc(Nc3nc(N4CCCCC4)ncc3Cl)ccc21 | 1000 | 70 (≈ 31.1 µg/mL) | – | –
22 | C[C@@H](O)CCn1c(=O)n(C)c2ccc(Nc3ccnc(Cl)c3C#N)cc21 | – | 308 (≈ 115 µg/mL) | – | –
23 | CC1CN(c2ncc(Cl)c(Nc3ccc4c(c3)n(CCC(C)(C)O)c(=O)n4C)n2)CCC1(F)F (centres undefined) | 330 | 24 (≈ 11.9 µg/mL) | 180 | logD [4]: 3.9; CLH [5]: 66 µL/min/mg

Row | Compound | IC50 [1] [nM] | solubility kinetic at 20 h [2] [µM] | DC50 [3] [nM] | also measured
24 | C[C@@H]1CN(c2cc(Nc3ccc4c(c3)n(CCC(C)(C)O)c(=O)n4C)c(Cl)cn2)C[C@H](C)O1 | 930 | 83 (≈ 39.3 µg/mL) | – | IC50 (BCL-6/NCOR2): 5000 nM
25 | Cn1c(=O)n(CCC(C)(C)O)c2cc(Nc3nc(N4CCC(F)(F)CC4)ncc3Cl)ccc21 | 310 | 66 (≈ 31.7 µg/mL) | – | logD [4]: 3.4; GI50 (OCI-Ly3): 2600 nM; DC50 [7]: 180 nM; DC50 [8]: 290 nM; CLH [5]: 36 µL/min/mg; GI50 (OCI-Ly1): 500 nM
26 | CC1CCCN(c2ncc(Cl)c(Nc3ccc4c(c3)n(CCC(C)(C)O)c(=O)n4C)n2)C1 (centres undefined) | 640 | 44 (≈ 20.2 µg/mL) | 520 | logD [4]: 4.2; IC50 (BCL-6/NCOR2): 13000 nM; CLH [5]: 2210 µL/min/mg
27 | Cc1cc(C)n(-c2cc(Nc3ccc4c(c3)n(CCC(C)(C)O)c(=O)n4C)c(Cl)cn2)n1 | 790 | 135 (≈ 61.4 µg/mL) | > 10000 | IC50 (BCL-6/NCOR2): 4600 nM
28 | CCC(O)Cn1c(=O)n(C)c2ccc(Nc3ccnc(Cl)c3C#N)cc21 (racemic) | 5400 | 298 (≈ 111 µg/mL) | – | –
29 | Cn1c(=O)n(C)c2cc(Nc3ncccc3C#N)ccc21 | – | 300 (≈ 83.8 µg/mL) | – | –
30 | Cn1c(=O)n(C)c2cc(Nc3ccnc(Cl)c3C#N)ccc21 | – | < 30 | – | solubility kinetic at 2 h [6]: 16 µM (≈ 5.02 µg/mL)
31 | C[C@@H]1CN(c2ncc(Cl)c(Nc3ccc4c(c3)n(CCC(C)(C)O)c(=O)n4C)n2)C[C@H](C)N1C | 190 | 343 (≈ 167 µg/mL) | > 10000 | IC50 (BCL-6/NCOR2): 1550 nM
32 | Cn1c(=O)n(CCC(C)(C)O)c2cc(Nc3nc(N4CCC(F)(F)C(CO)C4)ncc3Cl)ccc21 (centres undefined) | – | 294 (≈ 150 µg/mL) | – | logD [4]: 2.5; GI50 (OCI-Ly3): 2900 nM; GI50 (SUD4): 410 nM; GI50 (OCI-Ly1): 500 nM
33 | CC[C@@H](O)Cn1c(=O)n(C)c2ccc(Nc3ccnc(Cl)c3C#N)cc21 | 4500 | 307 (≈ 114 µg/mL) | – | –
34 | Cn1c(=O)n(CCC(C)(C)O)c2cc(Nc3ccncc3Cl)ccc21 | 990 | 526 (≈ 190 µg/mL) | – | –
35 | N#Cc1c(NCc2ccccc2)ccnc1Cl | – | 60 (≈ 14.6 µg/mL) | – | –
36 | Cn1c(=O)n(CCC(C)(C)O)c2cc(Nc3c(Cl)cncc3Cl)ccc21 | 37000 | 126 (≈ 49.8 µg/mL) | – | –
37 | Cn1c(=O)n(CCC(C)(C)O)c2cc(Nc3ccnc(Cl)c3Cl)ccc21 | 1400 | 251 (≈ 99.2 µg/mL) | – | –
38 | Cn1c(=O)n(CCC(C)(C)O)c2cc(Nc3nc(N4CCOCC4)ncc3Cl)ccc21 | 270 | 370 (≈ 165 µg/mL) | – | IC50 (BCL-6/NCOR2): 2300 nM
39 | Cn1c(=O)n(CCC(C)(C)O)c2cc(Nc3nc(N4CCCC(C(F)(F)F)C4)ncc3Cl)ccc21 (centres undefined) | 400 | < 30 | 750 | logD [4]: 4.2; CLH [5]: 630 µL/min/mg
40 | Cn1c(=O)n(CCC(C)(C)O)c2cc(Nc3ccnc(Cl)c3C#N)ccc21 | – | < 30 | – | solubility kinetic at 2 h [6]: 25 µM (≈ 9.65 µg/mL)
41 | Cn1c(=O)n(CCC(C)(C)O)c2cc(Nc3nc(Cl)ncc3Cl)ccc21 | – | 361 (≈ 143 µg/mL) | – | –
42 | CCCCn1c(=O)n(C)c2ccc(Nc3ccnc(Cl)c3C#N)cc21 | 6600 | 53 (≈ 18.9 µg/mL) | – | –
43 | Cn1c(=O)n(CCC(C)(C)O)c2cc(Nc3nc(N4CCCC(CO)C4)ncc3Cl)ccc21 (centres undefined) | 130 | 442 (≈ 210 µg/mL) | 450 | logD [4]: 2.1; CLH [5]: 370 µL/min/mg
44 | C[C@@H]1C[C@H](C)CN(c2ncc(Cl)c(Nc3ccc4c(c3)n(CCC(C)(C)O)c(=O)n4C)n2)C1 | – | < 30 | – | logD [4]: 4.7; GI50 (OCI-Ly3): 3100 nM; solubility kinetic at 2 h [6]: 6 µM (≈ 2.84 µg/mL); permeability [9]: 36 ×10⁻⁶ cm/s; GI50 (SUD4): 350 nM; Activity [10]: Dose-dependent effect; CLH [5]: 2440 µL/min/mg; GI50 (OCI-Ly1): 280 nM; Activity [11]: Dose-dependent effect
45 | Cc1ccn(-c2ncc(Cl)c(Nc3ccc4c(c3)n(CCC(C)(C)O)c(=O)n4C)n2)n1 | 400 | 253 (≈ 112 µg/mL) | > 10000 | IC50 (BCL-6/NCOR2): 2500 nM
